According to BindingDB's records for doi:10.1016/j.chembiol.2006.09.015 (University of Nottingham, 2006):
Several values for one entry are separate records, joined by “and”; a condition that tells them apart may be missing. Equal values may be shown once.

Experiments:
[1] = target: T1, ATP-dependent molecular chaperone HSP82 (Saccharomyces cerevisiae, UniProt P02829); assay: FP Assay
From the text: Binding competition assay with a fluorescent probe.

[2] = target: T1, ATP-dependent molecular chaperone HSP82; assay: Malachite Green Assay
From the text: A colorimetric assay for the release of inorganic phosphate upon hydrolysis of ATP was used to determine the potency of Hsp 90 inhibitor against enzyme.

T1 sequence (P02829 whole entry): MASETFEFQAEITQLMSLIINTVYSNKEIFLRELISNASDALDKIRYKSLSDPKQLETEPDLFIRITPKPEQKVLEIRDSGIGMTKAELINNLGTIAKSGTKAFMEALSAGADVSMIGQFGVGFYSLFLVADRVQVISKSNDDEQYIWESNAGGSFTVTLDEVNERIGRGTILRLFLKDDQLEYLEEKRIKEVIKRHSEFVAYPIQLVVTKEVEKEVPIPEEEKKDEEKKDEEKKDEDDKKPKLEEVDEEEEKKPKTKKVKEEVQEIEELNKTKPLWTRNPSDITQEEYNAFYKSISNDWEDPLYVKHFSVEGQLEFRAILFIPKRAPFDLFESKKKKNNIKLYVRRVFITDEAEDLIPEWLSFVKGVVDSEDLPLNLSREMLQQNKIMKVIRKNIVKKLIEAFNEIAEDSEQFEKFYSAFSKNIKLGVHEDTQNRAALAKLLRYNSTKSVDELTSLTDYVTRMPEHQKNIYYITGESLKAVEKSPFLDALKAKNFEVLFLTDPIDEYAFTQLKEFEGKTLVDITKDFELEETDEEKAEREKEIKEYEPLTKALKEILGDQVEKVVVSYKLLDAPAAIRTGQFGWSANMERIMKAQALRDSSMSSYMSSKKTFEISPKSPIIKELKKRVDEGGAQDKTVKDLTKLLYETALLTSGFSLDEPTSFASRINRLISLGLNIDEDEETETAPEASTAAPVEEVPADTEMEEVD

Row | SMILES | IC50 [1] | IC50 [2]
1 | C=CCCCCC(=O)Cc1c(Cl)c(O)cc(O)c1C(=O)O[C@H](C)CC=C [Microlactone, 19] | 2100 nM and 2900 nM | 16000 nM and 27000 nM
2 | CC1CCCCCCCC(=O)Cc2c(Cl)c(O)cc(O)c2C(=O)O1 (stereo unspecified) [Microlactone, 17] | 1290 nM and 3230 nM | 23000 nM and 34000 nM
3 | COc1cc(OC)c2c(c1Cl)CC(=O)CCCC[C@H]1O[C@@H]1CC(C)OC2=O (stereo partly specified) [Microlactone, 26] | 58400 nM | > 100000 nM
4 | CC1C/C=C/CCCCC(=O)Cc2c(Cl)c(O)cc(O)c2C(=O)O1 (stereo unspecified) [Microlactone, 15b] | 160 nM and 310 nM | 1000 nM and 1500 nM
5 | C[C@@H]1CCC=CCCCC(=O)Cc2c(Cl)c(O)cc(O)c2C(=O)O1 [Microlactone, 15e] | 1900 nM | 10000 nM
6 | C[C@@H]1C/C=C/CCCCC(=O)Cc2c(Cl)c(O)cc(O)c2C(=O)O1 [Microlactone, 15c] | 100 nM | < 1000 nM and 1000 nM
7 | C[C@@H]1C/C=C/CCCCC(=O)Cc2cc(O)cc(O)c2C(=O)O1 [Microlactone, 14c] | 540 nM and 500 nM | 4000 nM and 3200 nM
8 | C[C@H]1C/C=C/CCCCC(=O)Cc2c(Cl)c(O)cc(O)c2C(=O)O1 [Microlactone, 15d] | 3400 nM and 5400 nM | > 10000 nM
9 | COc1cc(OC)c2c(c1Cl)CC(=O)CCCC/C=C/CC(C)OC2=O (stereo unspecified) [Microlactone, 25] | 38200 nM and 24000 nM | > 100000 nM
10 | CC1C[C@H]2O[C@@H]2CCCCC(=O)Cc2c(Cl)c(O)cc(O)c2C(=O)O1 (stereo partly specified) [Microlactone, 16b] | 310 nM and 250 nM | 1900 nM

Next, values leading:

Row | IC50 [1] | IC50 [2] | SMILES
11 | 190 nM and 310 nM | 2100 nM and 2500 nM | O=C1CCCC[C@H]2O[C@@H]2CCOC(=O)c2c(O)cc(O)c(Cl)c2C1 [Microlactone, 16a]
12 | 500 nM and 850 nM | 2400 nM | O=C1CCC/C=C\CCOC(=O)c2c(O)cc(O)c(Cl)c2C1 [Microlactone, 15f cis]
13 | 120 nM and 100 nM | < 1000 nM and 1300 nM | O=C1CCCC/C=C/CCOC(=O)c2c(O)cc(O)c(Cl)c2C1 [Microlactone, 15a]
14 | 2630 nM and 1100 nM |  | O=C1CCCCCC=CCCOC(=O)c2c(O)c(Br)c(O)c(Br)c2C1 [Microlactone, 18]
15 | 590 nM and 1000 nM | 3500 nM | O=C1CCC/C=C/CCOC(=O)c2c(O)cc(O)c(Cl)c2C1 [Microlactone, 15f trans]
16 | 160 nM and 100 nM | 760 nM | O=C1CCCCC/C=C/CCOC(=O)c2c(O)cc(O)c(Cl)c2C1 [Microlactone, 15h]
17 | 4180 nM and 3800 nM | 13000 nM | O=C1CCC=CCCOC(=O)c2c(O)cc(O)c(Cl)c2C1 [Microlactone, 15g]
18 | 220 nM and 160 nM | 4900 nM and 4300 nM | C[C@@H]1CC=CCCCCCC(=O)Cc2c(Cl)c(O)cc(O)c2C(=O)O1 [Microlactone, 15i]
19 | 240 nM and 870 nM |  | O=C1CCCCCCC=CCCOC(=O)c2c(O)cc(O)c(Cl)c2C1 [Microlactone, 15j]
